According to patent US5314908A, “Compounds useful as antiproliferative agents” (Whitby Research, Inc., priority 1992, dated 1994):
“Also recorded” adds a separate entry of the source.

Assays:
[1] = Frohn et al.; Clemens et al.; cited from earlier work
[2] = test system: MCF-7 cells; experiment: growth inhibition of estrogen positive human breast cancer cell line MCF-7 in culture; assay type: cell-based; settings: for inhibition of MCF-7 cell growth, by concentration: 10^-15 M to 10^-5 M, inhibitory = proliferation decreased by 20% or more vs controls; for comparative assessment of potency / maximal inhibition, MCF-7 cell growth: summary statement; for potency relative to melatonin (times more potent), MCF-7 cell growth: compared with melatonin IC50
Procedure: (§1) The above examples were tested for their ability to inhibit the growth of both estrogen positive (MCF-7) and estrogen negative (Hs0578t) human breast cancer cell lines in culture. […] MCF-7 cells were maintained in Dulbecco's modified Eagle's medium (DMEM), supplemented with 10% fetal bovine serum (FBS), penicillin (10,000 units/ml) and streptomycin (10 mg/ml) at 37° C. in a humidified atmosphere containing 5% CO2. Hs0578t cells were maintained under similar conditions, however DMEM containing high glucose was used and 10 ug/ml of insulin was added to the medium. Prior to each experiment, cells from stock flasks were suspended by treatment with 0.2% EDTA in phosphate buffered saline (pH 7.3). The cells were then centrifuged at 1000 rpm for 7 minutes, then resuspended in fresh medium and counted on a hemocytometer. Cells were adjusted to a density of 3.0×10^6 /plate in 5 mls of supplemented plating medium. After 5 hours, the plating medium was replaced with fresh medium containing either melatonin or the above examples in concentrations ranging from 10^-15 M to 10^-5 M. These compounds were initially dissolved in ethanol and diluted to the appropriate final concentration with DMEM; the final concentration of ethanol per plate was 0.005%. Control cells were exposed to the ethanol vehicle alone (0.005%). Five days after initial seeding, the cells were resuspended with PBS-EDTA and counted on a hemocytometer to determine the total cell counts per plate. Each experiment was run using triplicate plates for each concentration of melatonin or above example as well as the vehicle controls. Cell growth in each of the experimental plates was expressed as a percent of control growth (100%). A given concentration of either an above example or of melatonin was considered to be inhibitory if it decreased cell proliferation by 20% or more as compared with controls. Since most of the dose-response curves were irregular, the approximate IC50 for each example was estimated from a best fit (manually fitted) curve spanning from the 100% control growth level to the maximal inhibitory concentration of that example. Effects of the above examples on estrogen receptor positive and estrogen receptor negative human breast cancer cell lines (MCF-7 and Hs0578t, respectively) are summarized in FIGS. 1-15, and discussed below. FIGS. 1-6 summarize effects on the MCF-7 cell line, while FIGS. 7-15 describe effects on the Hs0578t cell line.

[3] = test system: Hs0578t cells; experiment: growth inhibition of estrogen negative human breast cancer cell line Hs0578t in culture; assay type: cell-based; settings: for inhibition of Hs0578t cell growth, by concentration / IC50: 10^-15 M to 10^-5 M; for inhibition of Hs0578t cell growth, by concentration: inhibitory = proliferation decreased by 20% or more vs controls; for IC50: Homo sapiens, 120 h, approximate, estimated from manually fitted best fit curve, cell counts five days after seeding; for comparative assessment of potency / maximal inhibition, Hs0578t cell growth: summary statement
Procedure: as §1

[4] = test system: frog skin; settings: Heward and Hadley 1975; cited from earlier work
[5] = test system: chicken retina; settings: Dubocovich 1984; cited from earlier work
[6] = test system: MCF-7 cells; settings: reference molecule, known activity; cited from earlier work
[7] = test system: Hs0578t cells; settings: reference molecule, known activity; high concentrations; cited from earlier work
[8] = test system: mammary tumors; settings: melatonin administration; cited from earlier work

## COc1cc2c(CCNC(C)=O)c(C)[nH]c2c(Cl)c1Cl [2-methyl-6,7-dichloromelatonin]
[1]
  metabolic stability: improved metabolic stability

## CC(=O)NCCn1c(C)ccc1C [Example #1]
[2]
  inhibition of MCF-7 cell growth, by concentration: all concentrations except 10^-11 M and 10^-7 M inhibited MCF-7 cell growth
[3]; 10^-9 M
  stimulation of Hs0578t cell growth: cell growth is actually stimulated at 10^-9 M
[3]
  inhibition of Hs0578t cell growth, by concentration: inhibition of Hs0578t cell growth only at 10^-5 M
  IC50: ~6 nM

## O=C(NCCc1c[nH]c2ccccc12)OCc1ccccc1 [Example #2, N-Benzyloxycarbonyltryptamine]
[2]
  inhibition of MCF-7 cell growth, by concentration: inhibition of MCF-7 cell growth at all concentrations for Examples #2 and 9, with the exceptions of Example #2 at 10^-13 M
  comparative assessment of potency / maximal inhibition, MCF-7 cell growth: elicits the best maximal inhibitory response; also recorded: highly potent inhibitor of both cell lines, but also induces in both a substantial inhibitory response at low concentrations
[3]
  inhibition of Hs0578t cell growth, by concentration: inhibits Hs0578t cell growth at 10^-11 M and 10^-9 M
  comparative assessment of potency / maximal inhibition, Hs0578t cell growth: highly potent inhibitor of both cell lines, but also induces in both a substantial inhibitory response at low concentrations

## COc1ccc2[nH]c3c(c2c1)CCN(C(C)=O)C3C (stereo not drawn) [Example #3, 1-Methyl-2-N-Acetyl-6-Methoxy-1,2,3,4-Tetrahydro-β-Carboline]
[2]
  inhibition of MCF-7 cell growth, by concentration: inhibited MCF-7 cell growth at all concentrations
[3]
  inhibition of Hs0578t cell growth, by concentration: All concentrations of these compounds were inhibitory to cell growth

## COc1ccc2[nH]c(Cc3ccccc3)c(CCNC(C)=O)c2c1 [Example #4, 2-Benzyl-3-Ethylacetamido-5-Methoxyindole]
[2]
  inhibition of MCF-7 cell growth, by concentration: All concentrations of Example #4 were inhibitory to cell growth
  potency relative to melatonin (times more potent), MCF-7 cell growth: 60 times
[3]
  inhibition of Hs0578t cell growth, by concentration: inhibits Hs0578t cell growth at 10^-13 M and 10^-7 M
  comparative assessment of potency / maximal inhibition, Hs0578t cell growth: appears to be the most potent inhibitor of Hs0578t cells

## CCC(=O)NCCc1c(Cc2ccccc2)[nH]c2ccccc12 [Example #5, 2-Benzyl-N-Propionyltryptamine]
[2]
  concentration at which the maximal effect was seen (MCF-7): 10^-5 M
  inhibition of MCF-7 cell growth, by concentration: inhibited cell growth at all concentrations except 10^-13 M, 10^-11 M and 10^-7 M
[3]
  inhibition of Hs0578t cell growth, by concentration: no inhibition of Hs0578t cell growth was observed

## CC(=O)N1CCc2c([nH]c3ccccc23)C1 [Example #6, 2-N-Acetyl-1,2,3,4-Tetrahydro-β-Carboline]
[2]
  inhibition of MCF-7 cell growth, by concentration: All concentrations except 10^-13 M and 10^-5 M were inhibitory to MCF-7 cell growth
  comparative assessment of potency / maximal inhibition, MCF-7 cell growth: appears to be the most potent inhibitor of MCF-7 cell growth

## CC(=O)N1CCc2c([nH]c3ccc(OCc4ccccc4)cc23)C1C (stereo not drawn) [Example #7, 1-Methyl-2-N-Acetyl-6-Benzyloxy-1,2,3,4-Tetrahydro-β-Carboline]
[2]
  inhibition of MCF-7 cell growth, by concentration: All concentrations of Example #7 were inhibitory
  potency relative to melatonin (times more potent), MCF-7 cell growth: 100 times
[2]; Homo sapiens, MCF7, at 10^-15 M, read-out: maximal effect, inhibition (MCF-7 cell growth)
  Emax at 1 fM: 37%
[3]
  inhibition of Hs0578t cell growth, by concentration: All concentrations of these compounds were inhibitory to cell growth, with the exception of Example #7 at 10^-11 M
  IC50: ~10 nM

## CC(=O)NCCc1c(Cc2ccccc2)[nH]c2ccccc12 [Example #8, 2-Benzyl-3-Ethylacetamidoindole]
[3]
  IC50: ~0.1 nM

## CC(=O)NCCc1c(Cc2cccc3ccccc23)[nH]c2ccccc12 [Example #9]
[2]
  inhibition of MCF-7 cell growth, by concentration: inhibition of MCF-7 cell growth at all concentrations for Examples #2 and 9, with the exceptions of Example #2 at 10^-13 M and Example #9 at 10^-13 M and 10^-5 M
[3]
  inhibition of Hs0578t cell growth, by concentration: inhibits Hs0578t cell growth at 10^-5 M and 10^-7 M
  IC50: ~4 nM
  comparative assessment of potency / maximal inhibition, Hs0578t cell growth: shows the best maximal inhibition of growth

## CC(=O)NCCc1c(Cc2ccc(C)cc2)[nH]c2ccccc12 [Example #10, 2-(4-Tolylmethyl)-3-Ethylacetamidoindole]
[2]
  inhibition of MCF-7 cell growth, by concentration: inhibits MCF-7 cell growth at 10^-15 M, 10^-13 M, and 10^-11 M
[3]
  inhibition of Hs0578t cell growth, by concentration: no inhibition of Hs0578t cell growth was observed

## COc1ccc(Cc2[nH]c3ccccc3c2CCNC(C)=O)cc1 [Example #11, 2-(4-Methoxyphenyl)Methyl-3-Ethylacetamidoindole]
[2]
  inhibition of MCF-7 cell growth, by concentration: inhibits MCF-7 cell growth at 10^-15 M and 10^-13 M
  comparative assessment of potency / maximal inhibition, MCF-7 cell growth: not only a highly potent compound, but it elicits an impressive maximal inhibitory response at a very low concentration
[3]
  inhibition of Hs0578t cell growth, by concentration: no inhibition of Hs0578t cell growth was observed

## CC(=O)NCCc1c[nH]c2ccc(O)cc12 [N-acetylserotonin]
[4]
  melatonin blocking activity (frog skin lightening): melatonin blocking activity

## CC(=O)NCCc1c[nH]c2ccccc12 [N-acetyltryptamine]
[4]
  melatonin blocking activity (frog skin lightening): melatonin blocking activity
[5]
  antagonism of inhibitory effect of melatonin in chicken retina: competitively antagonized the inhibitory effect of melatonin in the chicken retina

## COc1ccc2[nH]cc(CCNC(C)=O)c2c1 [melatonin, 5-methoxy-N-actyltryptamine]
[3]
  inhibition of Hs0578t cell growth, by concentration: no inhibitory effect in most experiments
[6]
  inhibition of growth of estrogen positive cell lines: known to inhibit growth of estrogen positive cell lines
[7]
  inhibition of growth of estrogen negative cell lines such as Hs0578t: at high concentrations, can inhibit estrogen negative cell lines such as Hs0578t
[8]
  effect on mammary carcinogenesis: melatonin administration has been shown to inhibit
